Assay results taken from patent US10364247B2, “Preparation and use of novel protein kinase inhibitors” (Ruijin Hospital Affiliated to Shanghai Jiao Tong University …, priority 2015, dated 2019).

What was measured:
Experiment in all cases: KINOMEscan competition binding
NEK4 = biological target: T1, NEK4 (Homo sapiens, UniProt P51957); conditions: read-out: Percent Control
T1 construct: purchased KINOMEscan (screening platform)
Procedure, shortened: (§1)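 Values are % Ctrl from a primary single-concentration (10 μM) competition binding screen; lower % Ctrl indicates tighter binding.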

BRAF(V600E) = biological target: T2, BRAF(V600E) (Homo sapiens, UniProt P15056, V600E); conditions: read-out: Percent Control
T2 construct: purchased KINOMEscan (panel service)
Procedure, shortened: as §1

EPHB2 = EPHB2 (Homo sapiens, UniProt P29323); conditions: read-out: Percent Control
Procedure, shortened: as §1

MAP3K15 = biological target: T3, MAP3K15 (Homo sapiens, UniProt Q6ZN16); conditions: read-out: Percent Control
T3 construct: purchased KINOMEscan (screening service)
Procedure, shortened: as §1

RET(M918T) = RET(M918T) (Homo sapiens, UniProt P07949, M918T); conditions: read-out: Percent Control
Procedure, shortened: as §1

[1] = biological target: T4, ABL1(H396P)-nonphosphorylated (Homo sapiens, UniProt P00519, H396P); conditions: read-out: Percent Control
T4 construct: purchased KINOMEscan (panel service)
Procedure, shortened: as §1

[2] = biological target: ABL1(M351T)-phosphorylated (Homo sapiens, UniProt P00519, M351T); conditions: read-out: Percent Control
Procedure, shortened: as §1

[3] = biological target: EGFR(L747-S752del, P753S) (Homo sapiens, UniProt P00533, DEL747-752/P753S); conditions: read-out: Percent Control
Procedure, shortened: as §1

ABL1-nonphosphorylated = ABL1-nonphosphorylated (Homo sapiens, UniProt P00519); conditions: read-out: Percent Control
Procedure, shortened: as §1

STK36 = STK36 (Homo sapiens, UniProt Q9NRP7); conditions: read-out: Percent Control
Procedure, shortened: as §1

KIT(V559D, V654A) = KIT(V559D, V654A) (Homo sapiens, UniProt P10721, V559D/V654A); conditions: read-out: Percent Control
Procedure, shortened: as §1

SLK = SLK (Homo sapiens, UniProt Q9H2G2); conditions: read-out: Percent Control
Procedure, shortened: as §1

EPHA8 = biological target: T5, EPHA8 (Homo sapiens, UniProt P29322); conditions: read-out: Percent Control
T5 construct: purchased KINOMEscan (panel service)
Procedure, shortened: as §1

EGFR(S752-I759del) = EGFR(S752-I759del) (Homo sapiens, UniProt P00533, DEL752-759); conditions: read-out: Percent Control
Procedure, shortened: as §1

[4] = biological target: ABL1(F317I)-nonphosphorylated (Homo sapiens, UniProt P00519, F317I); conditions: read-out: Percent Control
Procedure, shortened: as §1

MLK1 = MLK1 (Homo sapiens, UniProt P80192); conditions: MLK1 (Entrez MAP3K9), read-out: Percent Control
Procedure, shortened: as §1

FLT3(R834Q) = biological target: T6, FLT3(R834Q) (Homo sapiens, UniProt P36888, R834Q); conditions: read-out: Percent Control
T6 construct: purchased KINOMEscan (screening service)
Procedure, shortened: as §1

[5] = biological target: ABL1(T315I)-phosphorylated (Homo sapiens, UniProt P00519, T315I); conditions: read-out: Percent Control
Procedure, shortened: as §1

LOK = LOK (Homo sapiens, UniProt O94804); conditions: LOK (Entrez STK10), read-out: Percent Control
Procedure, shortened: as §1

KIT(A829P) = KIT(A829P) (Homo sapiens, UniProt P10721, A829P); conditions: read-out: Percent Control
Procedure, shortened: as §1

ABL2 = biological target: T7, ABL2 (Homo sapiens, UniProt P42684); conditions: read-out: Percent Control
T7 construct: purchased KINOMEscan (panel service)
Procedure, shortened: as §1

EPHA4 = EPHA4 (Homo sapiens, UniProt P54764); conditions: read-out: Percent Control
Procedure, shortened: as §1

ALK = biological target: T8, ALK (Homo sapiens, UniProt Q9UM73); conditions: read-out: Percent Control
T8 construct: purchased KINOMEscan (screening service)
Procedure, shortened: as §1

YES = biological target: T9, YES (Homo sapiens, UniProt P07947); conditions: YES (Entrez YES1), read-out: Percent Control
T9 construct: purchased KINOMEscan (panel service)
Procedure, shortened: as §1

KIT = biological target: T10, KIT (Homo sapiens, UniProt P10721); conditions: read-out: Percent Control
T10 construct: purchased KINOMEscan (panel service)
Procedure, shortened: as §1

ASK2 = biological target: T11, ASK2 (Homo sapiens, UniProt O95382); conditions: ASK2 (Entrez MAP3K6), read-out: Percent Control
T11 construct: purchased KINOMEscan (screening service)
Procedure, shortened: as §1

RIPK1 = biological target: T12, RIPK1 (Homo sapiens, UniProt Q13546); conditions: read-out: Percent Control
T12 construct: purchased KINOMEscan (screening platform)
Procedure, shortened: as §1

[6] = biological target: T13, ABL1(H396P)-phosphorylated (Homo sapiens, UniProt P00519, H396P); conditions: read-out: Percent Control
T13 construct: purchased KINOMEscan (panel service)
Procedure, shortened: as §1

KIT(D816V) = biological target: T14, KIT(D816V) (Homo sapiens, UniProt P10721, D816V); conditions: read-out: Percent Control
T14 construct: purchased KINOMEscan (panel service)
Procedure, shortened: as §1

CDC2L2 = biological target: T15, CDC2L2 (Homo sapiens, UniProt Q9UQ88); conditions: read-out: Percent Control
T15 construct: purchased KINOMEscan (screening platform)
Procedure, shortened: as §1

CSF1R = biological target: T16, CSF1R (Homo sapiens, UniProt P07333); conditions: read-out: Percent Control
T16 construct: purchased KINOMEscan (panel service)
Procedure, shortened: as §1

LYN = biological target: T17, LYN (Homo sapiens, UniProt P07948); conditions: read-out: Percent Control
T17 construct: purchased KINOMEscan (panel service)
Procedure, shortened: as §1

AURKC = biological target: T18, AURKC (Homo sapiens, UniProt Q9UQB9); conditions: read-out: Percent Control
T18 construct: purchased KINOMEscan (screening service)
Procedure, shortened: as §1

[7] = biological target: T19, ABL1(Y253F)-phosphorylated (Homo sapiens, UniProt P00519, Y253F); conditions: read-out: Percent Control
T19 construct: purchased KINOMEscan (panel service)
Procedure, shortened: as §1

TIE1 = TIE1 (Homo sapiens, UniProt P35590); conditions: read-out: Percent Control
Procedure, shortened: as §1

AURKB = biological target: T20, AURKB (Homo sapiens, UniProt Q96GD4); conditions: read-out: Percent Control
T20 construct: purchased KINOMEscan (screening service)
Procedure, shortened: as §1

Chain of EGFR(S752-I759del) (P00533 with tags, fused parts or gaps DEL752-759): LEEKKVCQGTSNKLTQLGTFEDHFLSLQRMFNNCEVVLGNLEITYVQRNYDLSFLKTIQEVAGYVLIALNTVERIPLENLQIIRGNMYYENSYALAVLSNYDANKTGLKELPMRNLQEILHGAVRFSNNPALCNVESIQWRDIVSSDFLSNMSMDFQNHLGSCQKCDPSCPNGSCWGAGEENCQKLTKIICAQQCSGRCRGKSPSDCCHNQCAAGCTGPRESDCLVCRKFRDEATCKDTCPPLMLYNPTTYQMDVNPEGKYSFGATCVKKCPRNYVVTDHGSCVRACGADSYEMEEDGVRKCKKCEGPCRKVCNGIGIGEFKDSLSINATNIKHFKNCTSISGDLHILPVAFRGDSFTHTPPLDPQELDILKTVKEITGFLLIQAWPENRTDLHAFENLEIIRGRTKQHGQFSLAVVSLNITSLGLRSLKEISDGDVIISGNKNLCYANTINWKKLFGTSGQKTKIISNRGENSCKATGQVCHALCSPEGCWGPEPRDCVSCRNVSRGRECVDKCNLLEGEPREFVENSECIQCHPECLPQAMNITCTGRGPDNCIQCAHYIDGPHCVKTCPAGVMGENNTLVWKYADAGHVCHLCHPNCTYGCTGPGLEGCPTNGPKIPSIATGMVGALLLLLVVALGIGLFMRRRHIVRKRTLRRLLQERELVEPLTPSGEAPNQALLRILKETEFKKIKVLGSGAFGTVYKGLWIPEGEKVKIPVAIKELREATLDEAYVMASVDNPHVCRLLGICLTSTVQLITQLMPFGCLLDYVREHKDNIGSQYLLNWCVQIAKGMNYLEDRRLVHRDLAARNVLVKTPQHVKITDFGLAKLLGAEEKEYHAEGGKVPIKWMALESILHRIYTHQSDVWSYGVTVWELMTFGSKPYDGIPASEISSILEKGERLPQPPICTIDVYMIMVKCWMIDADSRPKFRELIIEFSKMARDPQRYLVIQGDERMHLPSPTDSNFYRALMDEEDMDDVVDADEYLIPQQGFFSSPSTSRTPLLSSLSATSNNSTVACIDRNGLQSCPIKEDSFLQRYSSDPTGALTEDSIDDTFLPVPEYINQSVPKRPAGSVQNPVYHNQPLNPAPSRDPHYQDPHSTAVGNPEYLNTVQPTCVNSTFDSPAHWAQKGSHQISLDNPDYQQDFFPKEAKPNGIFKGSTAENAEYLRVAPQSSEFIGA
Chain of EPHA4 (P54764 20-986): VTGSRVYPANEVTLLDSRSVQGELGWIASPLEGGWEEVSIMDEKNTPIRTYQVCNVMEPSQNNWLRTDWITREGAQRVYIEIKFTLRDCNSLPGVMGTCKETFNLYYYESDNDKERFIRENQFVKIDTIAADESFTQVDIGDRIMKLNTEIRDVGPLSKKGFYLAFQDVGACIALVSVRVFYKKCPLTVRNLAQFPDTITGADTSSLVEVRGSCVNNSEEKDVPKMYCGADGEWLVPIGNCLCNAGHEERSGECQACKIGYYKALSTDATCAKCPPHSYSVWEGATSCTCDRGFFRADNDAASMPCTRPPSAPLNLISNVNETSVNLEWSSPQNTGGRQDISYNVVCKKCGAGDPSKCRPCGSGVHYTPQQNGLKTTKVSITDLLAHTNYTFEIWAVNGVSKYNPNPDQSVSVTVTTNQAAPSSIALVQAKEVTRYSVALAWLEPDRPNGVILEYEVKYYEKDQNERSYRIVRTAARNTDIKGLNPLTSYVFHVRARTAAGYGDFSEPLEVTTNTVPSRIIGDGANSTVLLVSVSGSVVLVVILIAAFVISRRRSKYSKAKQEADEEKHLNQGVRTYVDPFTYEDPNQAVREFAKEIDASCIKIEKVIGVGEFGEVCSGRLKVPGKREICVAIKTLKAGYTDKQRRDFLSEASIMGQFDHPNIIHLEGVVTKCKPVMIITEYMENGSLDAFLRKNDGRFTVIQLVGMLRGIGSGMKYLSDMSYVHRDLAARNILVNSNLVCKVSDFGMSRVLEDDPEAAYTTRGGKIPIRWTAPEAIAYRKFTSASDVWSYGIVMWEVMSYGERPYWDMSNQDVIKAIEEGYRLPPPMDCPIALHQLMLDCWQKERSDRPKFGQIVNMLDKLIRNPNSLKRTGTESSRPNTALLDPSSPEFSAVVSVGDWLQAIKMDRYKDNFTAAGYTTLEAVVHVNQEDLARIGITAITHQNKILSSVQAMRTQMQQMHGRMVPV
Chain of LOK (O94804 whole entry): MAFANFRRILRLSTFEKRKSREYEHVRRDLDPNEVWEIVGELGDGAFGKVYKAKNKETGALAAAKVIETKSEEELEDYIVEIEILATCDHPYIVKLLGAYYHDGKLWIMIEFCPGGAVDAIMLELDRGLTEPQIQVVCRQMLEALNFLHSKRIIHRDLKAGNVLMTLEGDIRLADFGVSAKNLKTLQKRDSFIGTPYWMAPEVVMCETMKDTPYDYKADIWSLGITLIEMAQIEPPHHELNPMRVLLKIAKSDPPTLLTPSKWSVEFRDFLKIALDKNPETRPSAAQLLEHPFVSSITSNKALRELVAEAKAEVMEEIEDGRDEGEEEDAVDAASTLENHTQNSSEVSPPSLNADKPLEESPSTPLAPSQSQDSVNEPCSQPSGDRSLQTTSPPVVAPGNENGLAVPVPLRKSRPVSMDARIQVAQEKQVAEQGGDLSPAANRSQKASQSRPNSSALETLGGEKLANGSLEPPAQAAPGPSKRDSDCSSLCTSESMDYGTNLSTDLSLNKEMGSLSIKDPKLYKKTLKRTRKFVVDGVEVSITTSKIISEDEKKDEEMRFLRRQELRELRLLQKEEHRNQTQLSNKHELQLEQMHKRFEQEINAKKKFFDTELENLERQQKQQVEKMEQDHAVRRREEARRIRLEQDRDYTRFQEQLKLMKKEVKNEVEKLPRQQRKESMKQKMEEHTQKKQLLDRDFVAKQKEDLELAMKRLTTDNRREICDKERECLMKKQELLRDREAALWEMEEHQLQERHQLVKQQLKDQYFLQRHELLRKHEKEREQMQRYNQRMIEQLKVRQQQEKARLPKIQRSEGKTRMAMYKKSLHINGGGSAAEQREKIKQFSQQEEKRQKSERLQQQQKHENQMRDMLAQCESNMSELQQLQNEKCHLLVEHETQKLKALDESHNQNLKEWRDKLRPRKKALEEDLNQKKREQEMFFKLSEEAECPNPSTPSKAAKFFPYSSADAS
Chain of STK36 (Q9NRP7 whole entry): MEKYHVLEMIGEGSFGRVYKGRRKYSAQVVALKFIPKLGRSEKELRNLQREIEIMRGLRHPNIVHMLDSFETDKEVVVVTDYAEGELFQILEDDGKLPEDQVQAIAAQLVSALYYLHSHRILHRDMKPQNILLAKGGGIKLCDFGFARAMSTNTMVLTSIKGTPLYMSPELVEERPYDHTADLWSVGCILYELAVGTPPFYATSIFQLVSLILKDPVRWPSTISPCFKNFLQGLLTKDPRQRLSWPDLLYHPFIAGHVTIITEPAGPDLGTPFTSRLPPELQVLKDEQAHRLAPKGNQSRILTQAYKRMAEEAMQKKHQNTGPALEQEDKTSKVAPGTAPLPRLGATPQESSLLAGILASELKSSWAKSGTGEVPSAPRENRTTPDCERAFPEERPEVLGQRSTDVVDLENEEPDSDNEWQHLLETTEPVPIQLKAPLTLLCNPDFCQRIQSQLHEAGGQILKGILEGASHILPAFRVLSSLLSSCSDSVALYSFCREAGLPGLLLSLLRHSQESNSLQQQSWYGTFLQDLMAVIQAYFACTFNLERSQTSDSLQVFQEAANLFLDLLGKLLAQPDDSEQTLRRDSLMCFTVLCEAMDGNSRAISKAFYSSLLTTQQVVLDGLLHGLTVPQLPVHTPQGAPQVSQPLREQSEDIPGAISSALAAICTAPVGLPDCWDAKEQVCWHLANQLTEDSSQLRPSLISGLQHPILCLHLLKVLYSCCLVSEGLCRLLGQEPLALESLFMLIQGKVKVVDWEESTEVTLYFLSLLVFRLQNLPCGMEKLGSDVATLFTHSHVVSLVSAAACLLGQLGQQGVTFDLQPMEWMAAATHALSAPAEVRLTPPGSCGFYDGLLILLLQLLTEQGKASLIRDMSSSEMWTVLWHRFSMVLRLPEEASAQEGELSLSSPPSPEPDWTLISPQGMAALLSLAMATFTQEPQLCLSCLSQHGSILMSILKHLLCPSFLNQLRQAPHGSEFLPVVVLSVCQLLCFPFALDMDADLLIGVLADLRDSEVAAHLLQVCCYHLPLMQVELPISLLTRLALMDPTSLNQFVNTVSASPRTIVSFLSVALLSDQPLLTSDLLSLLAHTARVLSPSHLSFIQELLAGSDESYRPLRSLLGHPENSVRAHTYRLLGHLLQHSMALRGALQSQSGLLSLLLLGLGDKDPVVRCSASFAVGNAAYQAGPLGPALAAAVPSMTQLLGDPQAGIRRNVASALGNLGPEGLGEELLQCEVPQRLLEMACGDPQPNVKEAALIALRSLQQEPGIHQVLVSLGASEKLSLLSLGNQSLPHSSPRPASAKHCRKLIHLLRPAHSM
T17 sequence (P07948 whole entry): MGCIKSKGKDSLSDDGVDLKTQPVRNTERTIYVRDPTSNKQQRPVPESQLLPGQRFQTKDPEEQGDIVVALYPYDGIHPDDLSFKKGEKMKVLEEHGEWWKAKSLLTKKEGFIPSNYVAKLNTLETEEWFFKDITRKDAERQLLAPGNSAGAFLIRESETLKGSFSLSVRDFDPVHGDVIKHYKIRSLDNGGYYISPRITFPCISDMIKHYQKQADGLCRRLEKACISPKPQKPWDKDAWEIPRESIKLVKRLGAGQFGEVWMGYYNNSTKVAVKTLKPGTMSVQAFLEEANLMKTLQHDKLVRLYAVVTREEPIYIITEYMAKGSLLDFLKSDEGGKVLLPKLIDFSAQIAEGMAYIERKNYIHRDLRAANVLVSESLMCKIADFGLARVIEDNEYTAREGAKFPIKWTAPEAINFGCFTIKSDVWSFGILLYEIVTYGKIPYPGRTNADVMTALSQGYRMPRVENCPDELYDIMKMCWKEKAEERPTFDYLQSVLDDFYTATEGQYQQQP

## Cc1ccc(Nc2ncc3c(n2)N(C)CN(c2cc(NC(=O)c4cccc(C(F)(F)F)c4)ccc2C)C3)cn1 [IA-9, N-(4-methyl-3-(1-methyl-7-((6-methylpyridin-3-yl)amino)-1,4-dihydropyrimido[4,5-d]pyrimidin-3(2H)-yl)phenyl)-3-(trifluoromethyl)benzamide]
NEK4
  remaining binding at 10 µM: 30%
BRAF(V600E)
  remaining binding at 10 µM: 0.1%
EPHB2
  remaining binding at 10 µM: 0%
MAP3K15
  remaining binding at 10 µM: 8.4%
RET(M918T)
  remaining binding at 10 µM: 0%
[1]
  remaining binding at 10 µM: 0.05%
[2]
  remaining binding at 10 µM: 1.2%
[3]
  remaining binding at 10 µM: 0%
ABL1-nonphosphorylated
  remaining binding at 10 µM: 0.3%
STK36
  remaining binding at 10 µM: 1.6%
KIT(V559D, V654A)
  remaining binding at 10 µM: 0.35%
SLK
  remaining binding at 10 µM: 6.1%
EPHA8
  remaining binding at 10 µM: 0.15%
EGFR(S752-I759del)
  remaining binding at 10 µM: 0%
[4]
  remaining binding at 10 µM: 0%
MLK1
  remaining binding at 10 µM: 5.7%
FLT3(R834Q)
  remaining binding at 10 µM: 20%
[5]
  remaining binding at 10 µM: 4.1%
LOK
  remaining binding at 10 µM: 0%
KIT(A829P)
  remaining binding at 10 µM: 3.6%
ABL2
  remaining binding at 10 µM: 0.1%
EPHA4
  remaining binding at 10 µM: 0%
ALK
  remaining binding at 10 µM: 22%
YES
  remaining binding at 10 µM: 0.05%
KIT
  remaining binding at 10 µM: 0.05%
ASK2
  remaining binding at 10 µM: 7%
RIPK1
  remaining binding at 10 µM: 28%
[6]
  remaining binding at 10 µM: 0.15%
KIT(D816V)
  remaining binding at 10 µM: 0.05%
CDC2L2
  remaining binding at 10 µM: 28%
CSF1R
  remaining binding at 10 µM: 0.15%
LYN
  remaining binding at 10 µM: 0.1%
AURKC
  remaining binding at 10 µM: 6.9%
[7]
  remaining binding at 10 µM: 0.15%
TIE1
  remaining binding at 10 µM: 5.6%
AURKB
  remaining binding at 10 µM: 15%
